Test [1] has as its target T1, DNA repair protein RAD52 homolog (Homo sapiens, UniProt P43351).
T1 sequence (P43351 whole entry): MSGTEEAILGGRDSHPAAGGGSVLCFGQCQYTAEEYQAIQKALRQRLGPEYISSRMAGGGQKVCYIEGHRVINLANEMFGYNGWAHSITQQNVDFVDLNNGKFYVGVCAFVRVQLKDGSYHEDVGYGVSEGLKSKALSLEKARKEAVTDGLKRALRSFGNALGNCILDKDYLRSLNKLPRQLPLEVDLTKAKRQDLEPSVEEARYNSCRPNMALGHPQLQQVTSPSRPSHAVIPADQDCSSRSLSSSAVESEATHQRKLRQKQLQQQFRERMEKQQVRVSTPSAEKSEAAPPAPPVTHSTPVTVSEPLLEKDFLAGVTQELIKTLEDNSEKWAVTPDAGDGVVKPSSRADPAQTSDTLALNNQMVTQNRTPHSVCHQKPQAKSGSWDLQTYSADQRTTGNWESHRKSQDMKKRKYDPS
The format is functional, biochemical.

The target of the next test is Melanocortin receptor 4 (Homo sapiens, UniProt P32245). The test can be described thus: MC4R antagonist potency on cAMP, dose response, cell-based, TR-FRET, biased antagonists (AID 602298).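 Also: antagonist potency against agonist-stimulated cAMP production.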 The test is classed as functional. In general terms: Time-resolved FRET reads energy transfer from a long-lived donor to a nearby acceptor.
The target in another test is T2, Bcl-2-related protein A1 (Mus musculus, UniProt Q07440).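 Also: confirmatory dose–response counterscreen on Bfl-1, used to check hits from a UBC13 polyubiquitin inhibitor campaign.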
T2 sequence (Q07440 whole entry): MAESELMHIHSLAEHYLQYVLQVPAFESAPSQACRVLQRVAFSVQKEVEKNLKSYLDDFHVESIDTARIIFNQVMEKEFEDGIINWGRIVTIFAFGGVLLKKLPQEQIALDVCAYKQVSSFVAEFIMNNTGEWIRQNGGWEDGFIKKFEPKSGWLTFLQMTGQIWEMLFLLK
The test is classed as functional.

In the next test the target is Beta-galactosidase (Escherichia coli, UniProt Q8VNN2). The test can be described thus: PubChem AID 485352. The test is classed as functional.
Test [2] concerns the target Type-1 angiotensin II receptor (Homo sapiens, UniProt P30556). In words: AT1 receptor antagonists, dose response, selectivity assay for APJ receptor antagonist project, cell-based, uHTS hits (AID 463214).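 Also: antagonist potency against angiotensin II stimulated AT1 response.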 The test is classed as functional.
In test [3] the target is T3, Ubiquitin-conjugating enzyme E2 N (Homo sapiens, UniProt P61088).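 Also: Dose-response confirmation in a TR-FRET assay detecting UBC13-driven polyubiquitin chain formation, inhibition measured.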
T3 sequence (P61088 whole entry): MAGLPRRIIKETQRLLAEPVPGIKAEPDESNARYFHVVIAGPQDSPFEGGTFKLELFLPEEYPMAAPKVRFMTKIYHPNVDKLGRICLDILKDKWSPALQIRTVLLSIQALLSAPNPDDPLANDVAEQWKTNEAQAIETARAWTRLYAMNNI
The test is classed as functional.

Test [4] is described as follows: nonselective inhibitors of cellular cAMP signaling, dose response, counter-screen for MC4R biased antagonist project, cell-based, TR-FRET cAMP detection (AID 602305).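 Also: U2OS cells stimulated with forskolin near its EC80 as the cAMP inducer; potency is for inhibition of forskolin-stimulated cAMP signaling.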 The test is classed as functional.
Test [5] deals with T4, Hexokinase-1 (Homo sapiens, UniProt P19367). In words: SAR analysis of small molecule inhibitors of hexokinase domain containing I (HKDC1) in the hexokinase 1 selectivity assay. [Related pubchem assays (depositor defined):AID493160, AID493190]. The test is classed as functional.
Test [6] addresses T5, Hexokinase HKDC1 (Homo sapiens, UniProt Q2TB90).
T5 sequence (Q2TB90 whole entry): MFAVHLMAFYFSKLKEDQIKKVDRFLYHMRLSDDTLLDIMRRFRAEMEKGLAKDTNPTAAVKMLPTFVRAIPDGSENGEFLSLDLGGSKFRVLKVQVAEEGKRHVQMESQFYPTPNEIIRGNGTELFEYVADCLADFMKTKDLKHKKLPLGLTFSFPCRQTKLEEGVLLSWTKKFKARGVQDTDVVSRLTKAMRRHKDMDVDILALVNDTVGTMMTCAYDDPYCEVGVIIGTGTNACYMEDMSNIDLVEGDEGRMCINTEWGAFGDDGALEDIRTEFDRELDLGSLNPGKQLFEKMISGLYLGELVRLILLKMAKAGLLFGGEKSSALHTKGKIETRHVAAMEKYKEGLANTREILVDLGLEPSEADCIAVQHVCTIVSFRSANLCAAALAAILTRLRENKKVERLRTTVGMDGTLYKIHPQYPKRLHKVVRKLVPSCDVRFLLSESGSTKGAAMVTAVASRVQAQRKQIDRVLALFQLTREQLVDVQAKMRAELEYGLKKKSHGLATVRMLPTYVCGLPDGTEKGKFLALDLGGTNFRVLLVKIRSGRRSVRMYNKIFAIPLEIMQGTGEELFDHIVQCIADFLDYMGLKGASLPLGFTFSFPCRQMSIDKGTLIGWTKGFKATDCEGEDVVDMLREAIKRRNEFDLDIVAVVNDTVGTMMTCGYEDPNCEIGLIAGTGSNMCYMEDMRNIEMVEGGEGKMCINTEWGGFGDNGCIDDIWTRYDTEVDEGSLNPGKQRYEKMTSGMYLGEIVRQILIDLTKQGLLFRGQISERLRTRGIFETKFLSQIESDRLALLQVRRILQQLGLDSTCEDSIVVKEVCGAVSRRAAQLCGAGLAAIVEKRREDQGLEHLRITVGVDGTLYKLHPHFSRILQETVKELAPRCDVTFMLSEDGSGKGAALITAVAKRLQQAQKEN
The test can be described thus: SAR analysis of small molecule inhibitors of hexokinase domain containing I (HKDC1). [Related pubchem assays (depositor defined):AID493160, AID493190]. The format is functional.

A further test deals with Major prion protein (Homo sapiens, UniProt P04156). The test is classed as functional, cell-based.
In test [7] the target is T4, Hexokinase-1. The test can be described thus: HK1 enzyme inhibition by HKDC1 hits, SAR follow-up, selectivity assay for HKDC1 inhibitor project, biochemical, set 2, resazurin fluorescence coupled readout (AID 588356). The format is functional. In general terms: The colour change of resazurin is a common sign of viable cells or microbes.
Test [8] deals with T5, Hexokinase HKDC1. In words: HKDC1 hexokinase inhibitors, SAR follow-up, biochemical, set 2 (AID 588355). The test is classed as functional.
Test [9] concerns INS1. In words: protection from cytokine-driven beta-cell apoptosis, dose response, JC-1 fluorescence, INS-1E, dry powder, set 2 (AID 488867). The format is functional, cell-based. The note with it: Rattus norvegicus.
Test [10] has as its system INS1. The test can be described thus: protection of INS-1E cells from cytokine death, dose response, ATP luminescence, dry powder (AID 488844). The test is classed as functional, cell-based. Particulars: Rattus norvegicus.
A short description of test [11]: inhibitors of cytokine-induced nitrite release, dose response, cell-based, Griess absorbance, INS-1E, dry powder, set 3 (AID 488870). The test is classed as functional. Particulars: Rattus norvegicus. Background: Nitrite, measured by Griess reagent, commonly stands in for NO production.
Test [12] relates to INS1. In words: protection from cytokine-induced mitochondrial depolarization, dose response, cell-based, INS-1E, JC-1 fluorescence ratio, dry powder (AID 488931). The format is functional. Particulars: Rattus norvegicus.
The next test addresses Phospholipase D2 (Homo sapiens, UniProt O14939). In words: PLD2 purified enzyme concentration response. [Related pubchem assays (depositor defined):AID588854]. The format is functional.
The target of another test is Phospholipase D1 (Homo sapiens, UniProt Q13393). In words: PLD1 purified enzyme concentration response. [Related pubchem assays (depositor defined):AID588854]. The test is classed as functional.

Results on 5 molecules are retold here after ChEMBL document CHEMBL1201862, “PubChem BioAssay data set” (2004).

Activity calls are given as the source filed them. A value given as a limit tells only on which side of the number the result lay.

For orientation: AC50 means the concentration giving half of the maximal activity seen. In general, IC50 refers to the midpoint of a concentration-inhibition curve. A word on the EC50: it is the midpoint of the concentration-response curve.

In the case of `CCC[C@@H](CN1CCC[C@H]1CN1C(N)=NC[C@H]1CC(C)C)N1C[C@@H](Cc2ccccc2)N(CCc2ccc(Cl)c(Cl)c2)C1=N`, the AC50 in [1] is 14.7 µM (active). The IC50 on Melanocortin receptor 4 is 7.65 µM (active); at Bcl-2-related protein A1 it was > 20 µM (inactive); in [2] it was > 40 µM (not active); in test [3] it was 12.5 µM (active); in [4] it was > 64.6 µM (inactive). Moreover, the EC50 on Beta-galactosidase is > 40 µM (inactive).

Consider `O=C(CSc1ncnc2ccccc12)Nc1cccc(S(=O)(=O)N2CCOCC2)c1`, for which the IC50 on Hexokinase-1 [5] is > 80 µM (inactive); in the test “cells” it was > 138 µM (inactive); at Hexokinase HKDC1 [6] it was > 80 µM (inactive); at Major prion protein, 9.12 µM (active).

For the molecule `Cc1ccccc1NC1c2ccccc2C(=O)N1c1ccccc1C` (centres undefined), the IC50 on Hexokinase-1 [7] and on Hexokinase HKDC1 [8] was > 80 µM (inactive) each time.

As for `COc1ccc(S(=O)(=O)N(C)C[C@H]2Oc3c(NC(=O)Nc4cccc5ccccc45)cccc3C(=O)N([C@H](C)CO)C[C@@H]2C)cc1`, the AC50 in the test on INS1 [9] was 43.4 µM (active); with INS1 [10], 21.9 µM (active); in [11], 63.9 µM (active); in the test on INS1 [12], 33.7 µM (active).

`O=C(NCCN1CCC2(CC1)C(=O)NCN2c1ccc(F)c(F)c1)c1ccc2ccccc2c1`: the concentration for half-maximal inhibition (IC50) at Phospholipase D2 was 0.098 µM (active); at Phospholipase D1, 20 µM (active).
